Data taken from article PMC6332220, “Synthesis, Characterization and Biological Evaluation of Some Quinoxaline Derivatives: A Promising and Potent New Class of Antitumor and Antimicrobial Agents” (Molecules, 2015).
In brackets after ≈: the same amount, converted by molar mass.

Assays:
SF-268 (CNS cancer) = assay: In vitro cytotoxicity, SRB cell growth assay, SF-268; conditions: Homo sapiens, SF-268, 48 h, read-out: IC50 (μg/mL) SF-268
Description: The in vitro cytotoxic activity of the newly synthesized compounds against human breast cell line (MCF7), non-small cell lung cancer NCIH460, CNS cancer SF-268 and WI 38 (normal fibroblast cells) were evaluated using doxorubicin as the reference drug according to the method reported by Skehan et al..
The newly synthesized compounds were evaluated in vitro against three human cancer cell lines; which are MCF-7 (breast adenocarcinoma), NCI-H460 (non-small cell lung cancer) and SF-268 (CNS cancer), and WI 38 (normal fibroblast cells) were used in this study. MCF-7 was obtained from the European Collection of Cell Cultures (ECACC, Salisbury, UK) but NCI-H460, SF-268 and WI 38 were kindly provided by the National Cancer Institute (NCI, Cairo, Egypt). They grow as monolayer and routinely maintained RPMI-1640 medium supplemented with 5% heat inactivated fetal bovine serum (FBS), 2 mM glutamine and antibiotics (penicillin 100 U/mL, streptomycin 100 µg/mL), at 37 °C in a humidified atmosphere containing 5% CO2. Exponentially growing cells were obtained by plating 1.5 × 10^5 cells/mL for MCF-7 and SF-268, and 0.75 × 10^4 cells/mL for NCI-H460 followed by 24 h of incubation. The effect of the vehicle solvent (DMSO) on the growth of these cell lines was evaluated in all experiments by exposing untreated control cells to the maximum concentration (0.5%) of DMSO used in each assay.
The effect of compounds on the in vitro growth of human tumor cell lines were evaluated according to the procedure adopted by the National Cancer Institute ([…]) in the “In vitro Anticancer Drug Discovery Screen” that uses the protein-binding dye sulforhodamine B (SRB) to assess cell growth. In the assay protocol, all cells were incubated at 37 °C under humidified atmosphere containing 5% CO2. Briefly, exponentially cells growing in 96-well plates were then exposed for 48 h to five serial concentrations of each compound, starting from a maximum concentration of 150 μg/mL. Following this exposure period adherent cells were fixed, washed and stained. The bound stain was solubilized and the absorbance was measured at 492 nm in a plate reader (Bio-Tek Instruments Inc., Power wave XS, Winston, NC, USA). For each test compound and cell line, a dose response curve was obtained and the inhibitory concentration of 50% (IC50), corresponding to the concentration of the compounds that inhibited 50% of the net cell growth was calculated as described elsewhere. Doxorubicin was used as a positive control and tested in the same manner.

Streptococcus faecalis = assay: MIC by broth dilution, Streptococcus faecalis; type: cell-based; conditions: Enterococcus faecalis, Gram positive, 0.98-125 µg/mL, read-out: Minimum Inhibitory Concentration (MIC) (µg/mL) Streptococcus faecalis
Description: (§1) In this study, MIC (quantitative method) was used for evaluation of the antimicrobial activity of tested compounds. Screening was evaluated in vitro using the Broth dilution method according to CLSI [45]. All the bacteria were incubated and activated at 30 °C for 24 h inoculation into nutrient broth and the fungi were incubated in malt extract broth for 48 h. The compounds were dissolved in DMSO and then diluted using […] Mueller-Hinton broth. […] In each case triplicate tests were performed and the average was taken as the final reading. The tubes were then inoculated with the test organisms, grown in their suitable broth at 37 °C for 24 h for tested microorganisms (1 × 10^8 CFU/mL for bacteria and 1 × 10^6 CFU/mL of fungi), each 5 mL received 0.1 mL of the above inoculum and incubated at 37 °C for 24 h.

Pseudomonas aeruginosa = assay: MIC by broth dilution, Pseudomonas aeruginosa; type: cell-based; conditions: Pseudomonas aeruginosa, Gram negative, 0.98-125 µg/mL, read-out: Minimum Inhibitory Concentration (MIC) (µg/mL) Pseudomonas aeruginosa
Description: as §1

Salmonella typhimurium = assay: MIC by broth dilution, Salmonella typhimurium; type: cell-based; conditions: Salmonella enterica, TYPHIMURIUM, Gram negative, 0.98-125 µg/mL, read-out: Minimum Inhibitory Concentration (MIC) (µg/mL) Salmonella typhimurium
Description: as §1

Aspergillus flavus = assay: Disk diffusion, Aspergillus flavus; type: cell-based; conditions: Fungi, 8.0 mm disks, 10 μL
Description: (§2) The disk diffusion method was used for determination of the antimicrobial activity using ampicillin, gentamicin and amphotericin B as reference drugs. The results were recorded for each compounds as the average diameter as inhibition zones (IZ) of bacterial or fungal growth around the discs in mm as shown in Table 2.
(§3) Antimicrobial activities were carried out against highly pathogenic strains; three strains of Gram positive bacteria (Bacillus subtilis, Staphylococcus aureus and Streptococcus faecalis), four strains of Gram negative bacteria (Escherichia coli, Neisseria gonorrhoeae, Pseudomonas aeruginosa and Salmonella typhimurium) and three fungi strains (Aspergillus flavus, Aspergillus fumigatus and Candida albicans) isolated from primary agar plates. Antimicrobial activity of the tested samples was determined using a modified Kriby-Bauer disk diffusion method. Briefly, 100 µL of the test bacteria/fungi were grown in 10 mL of fresh media until they reached a count approximately 10^8 cells/mL for bacteria or 10^5 cells/mL for fungi. 100 µL of microbial suspension was spread onto agar plates corresponding to the broth in which they were maintained. The inoculated plates of bacterial strains were incubated at 35–37 °C for 24–48 h, while the inoculated plates of fungal strains such as A. flavus and A. fumigatus were incubated at 25 °C for 48 h and yeast as C. albicans was incubated at 30 °C for 24–48 h.
(§4) The agar disk diffusion (qualitative) method was used in this investigation for determination of the preliminary antibacterial and antifungal activities. The agar used was Mueller-Hinton agar plates that are rigorously tested for composition and pH. Further the depth of the agar in the plate is a factor to be considered in the disk diffusion method.
(§5) Reference drugs: ampicillin was used as a standard antibacterial drug for Gram positive bacteria, gentamicin as a standard antibacterial drug for Gram negative bacteria and amphotericin B as antifungal standard drug.
(§6) Bacterial and fungal strains were spread onto the surface of the agar plates using sterile cotton swabs. For evaluation of antibacterial activities, blank paper disks (Schleicher & Schuell, Alicante, Spain) with a diameter of 8.0 mm were saturated with 10 μL of tested concentration of the stock solutions. Disks were dried and then placed onto inoculated agar plates. The plates of bacterial strains were reincubated at 35–37 °C for 24–48 h, while the plates of fungal strains such as A. flavus and A. fumigatus were reincubated at 25 °C for 48 h and yeast as C. albicans was reincubated at 30 °C for 24–48 h as mentioned above. […] For an accurate analysis, tests were run in triplicate for each strain to avoid any error as described in Table 2.
Disk diffusion method for filamentous fungi testing by using approved standard method (M02-A11) developed by the CLSI for evaluating the susceptibilities of filamentous fungi to antifungal agents. Disk diffusion method for yeasts developed by using approved standard method (M44-A2) by the CLSI [44]. Agar-based methods such as disk diffusion can be good alternatives because they are simpler and faster than broth-based methods.

Bacillus subtilis = assay: Disk diffusion, Bacillus subtilis; type: cell-based; conditions: Gram positive, 8.0 mm disks, 10 μL
Description: as §2, §3, §4, §5, §6

Staphylococcus aureus = assay: Disk diffusion, Staphylococcus aureus; type: cell-based; conditions: Gram positive, 8.0 mm disks, 10 μL
Description: as §2, §3, §4, §5, §6

Neisseria gonorrhoeae = assay: Disk diffusion, Neisseria gonorrhoeae; type: cell-based; conditions: Gram negative, 8.0 mm disks, 10 μL
Description: as §2, §3, §4, §5, §6

Row | Compound | IC50 (SF-268 (CNS cancer)) [µg/mL] | MIC (Streptococcus faecalis) [µg/mL] | MIC (Pseudomonas aeruginosa) [µg/mL] | MIC (Salmonella typhimurium) [µg/mL] | Inhibition Zone Diameter (IZ) (mm) Aspergillus flavus (Aspergillus flavus) | Inhibition Zone Diameter (IZ) (mm) Bacillus subtilis (Bacillus subtilis) [mm] | Inhibition Zone Diameter (IZ) (mm) Staphylococcus aureus (Staphylococcus aureus) [mm] | Inhibition Zone Diameter (IZ) (mm) Neisseria gonorrhoeae (Neisseria gonorrhoeae)
1 | Brc1ccc2c(c1)n1nnnc1c1nnnn21 [Compound 11, 9-Bromoditetrazolo[1,5-a:5′,1′-c]quinoxaline] | 2.86 ± 4.92 (≈ 9.83 µM) | 62.5 (≈ 215 µM) | 125 (≈ 429 µM) | 7.81 (≈ 26.8 µM) | R (R (IZ = 0 mm)) | 19 | 17 | R (R (IZ = 0 mm))
2 | Cc1cc(C)n(-c2nc3cc(Br)ccc3nc2NN)n1 [Compound 14, 6-Bromo-3-(3,5-dimethyl-1H-pyrazol-1-yl)-2-hydrazinyl quinoxaline] | 42.1 ± 5.58 (≈ 126 µM) | 1.95 (≈ 5.85 µM) | 125 (≈ 375 µM) | 1.95 (≈ 5.85 µM) | R (R (IZ = 0 mm)) | 12 | 12 | 12 mm
3 | Brc1ccc2nc(N3CCCCC3)c3nnnn3c2c1 [Compound 5a, 8-Bromo-4-(piperidin-1-yl)tetrazolo[1,5-a]quinoxaline] | 0.02 ± 0.008 (≈ 0.06 µM) | 62.5 (≈ 188 µM) | 125 (≈ 375 µM) | 31.2 (≈ 93.8 µM) | R (R (IZ = 0 mm)) | 13 | 11 | R (R (IZ = 0 mm))
4 | Brc1ccc2nc(N3CCOCC3)c3nnnn3c2c1 [Compound 5b, 8-Bromo-4-(morpholin-4-yl)tetrazolo[1,5-a]quinoxaline] | 0.06 ± 0.008 (≈ 0.179 µM) | 3.9 (≈ 11.6 µM) | > 125 | 1.95 (≈ 5.82 µM) | R (R (IZ = 0 mm)) | 17 | 17 | R (R (IZ = 0 mm))
5 | NNc1nc2ccc(Br)cc2nc1NN [Compound 9, 6-Bromo-2,3-dihydrazinylquinoxaline] | 38.9 ± 2.63 (≈ 145 µM) | 0.98 (≈ 3.64 µM) | 125 (≈ 465 µM) | 0.98 (≈ 3.64 µM) | R (R (IZ = 0 mm)) | 28 | 27 | 28 mm
6 | NC1=NN(c2nc3ccc(Br)cc3nc2N2N=C(N)CC2=O)C(=O)C1 [Compound 16, 6-Bromo-2,3-bis(3-amino-1H-pyrazol-5(4H)-one)quinoxaline] | 49.9 ± 8.64 (≈ 124 µM) | 31.2 (≈ 77.5 µM) | 125 (≈ 310 µM) | 1.95 (≈ 4.84 µM) | R (R (IZ = 0 mm)) | 10 | 12 | 11 mm
7 | NNc1nc2cc(Br)ccc2nc1Cl [Compound 3, 6-Bromo-2-chloro-3-hydrazinylquinoxaline] | 30.6 ± 2.39 (≈ 112 µM) | 15.6 (≈ 57.1 µM) | 125 (≈ 457 µM) | 1.95 (≈ 7.13 µM) | R (R (IZ = 0 mm)) | 15 | 14 | 14 mm
8 | Clc1nc2ccc(Br)cc2n2nnnc12 [Compound 4, 8-Bromo-4-chlorotetrazolo[1,5-a]quinoxaline] | 0.06 ± 0.003 (≈ 0.211 µM) | 0.98 (≈ 3.44 µM) | > 125 | 0.98 (≈ 3.44 µM) | 13 mm | 20 | 26 | 21 mm
